25 compounds from ChEMBL document CHEMBL1143211, “Inhibitors of proteases and amide hydrolases that employ an alpha-ketoheterocycle as a key enabling functionality” (Bioorg Med Chem, 2008) can be followed below.

Structures are written as SMILES. Where only a bound is given, the exact number is not on record here.

Broadly, the Ki is the dissociation constant of the complex between target and ligand, obtained from inhibition or displacement. A high value points to lower affinity. Broadly, the IC50 is the point on the concentration scale where inhibition reaches its midpoint. A lower IC50 goes with inhibition by little substance.

In one assay the target is Prothrombin (Homo sapiens, UniProt P00734). The assay can be described thus: Inhibition of human alpha-thrombin.
Take `Cc1cccc(C(C)(C)CN(CC(=O)NCC(=O)NC(CCCN=C(N)N)B(O)O)C(=O)CCc2ccccc2)c1` (single isomer, unassigned): the affinity, expressed as Ki, was 400 nM. Same read-out and setting: in the case of `N=C(N)NCCC[C@H](NC(=O)[C@@H]1CC[C@H]2CN(S(=O)(=O)Cc3ccccc3)CC(=O)N21)C(=O)c1nccs1` it was 0.2 nM. Consider `NC(N)=NCCC[C@H](NC(=O)CN1CCN(S(=O)(=O)Cc2ccccc2)CC1=O)C(=O)c1nccs1`, for which the IC50 came to 390 nM.

Compound `NC(N)=NCCC[C@H](NC(=O)[C@@H]1CC[C@H]2CN(C(=O)[C@H](N)Cc3cc4ccccc4[nH]3)CC(=O)N21)C(=O)c1nccs1` displayed a Ki of 1 nM. Take `N=C(N)N1CCC[C@@H](C[C@H](NC(=O)CN2C(=O)CN(CCCc3ccc(Cl)cc3)C(=O)[C@H]2Cc2ccccc2)C(=O)c2nccs2)C1`: inhibition was half-maximal at 110 nM (IC50).

`C[C@]12C[C@@H](Cc3ccccc3)CC(=O)N1[C@H](C(=O)N[C@@H](CCCN=C(N)N)C(=O)c1nc3ccccc3s1)CS2` registered a Ki of 18 nM. In other words, the double-digit nanomolar range. On to `NC(N)=NCCC[C@H](NC(=O)CN1CCN(S(=O)(=O)c2ccc(Cl)cc2)CC1=O)C(=O)c1nccs1`, for which the IC50 stood at 1000 nM. On the same count and under the same terms, in the case of `CC(C)C[C@H](NC(=O)NCc1ccc(Cl)c(Cl)c1)C(=O)N[C@H](C(=O)N[C@@H](CCCN=C(N)N)C(=O)c1nccs1)C(C)C` it was 2600 nM. Same read-out and setting: in the case of `NC(N)=NCCC[C@H](NC(=O)CN1CCCC[C@@H](NS(=O)(=O)Cc2ccccc2)C1=O)C(=O)c1nccs1` it was 38 nM.

`C[C@]12C[C@@H](Cc3ccccc3)CC(=O)N1[C@H](C(=O)N[C@@H](CCCNC(=N)N)C(=O)c1nccs1)CS2` displayed a Ki of 16 nM. For `N=C(N)N1CCC[C@@H](C[C@H](NC(=O)CN2C(=O)CN(c3ccccc3)C(=O)[C@H]2Cc2ccccc2)C(=O)c2nccs2)C1`, the IC50 is 1200 nM. `C[C@]12C[C@@H](Cc3ccc4nc(C(F)(F)F)ccc4c3)CC(=O)N1[C@H](C(=O)N[C@@H](CCCNC(=N)N)C(=O)c1nc3ccccc3s1)CS2` registered an inhibition constant Ki of 18 nM. As for `N=C(N)NCCC[C@H](NC(=O)[C@@H]1CC[C@H]2CN(C(=O)CCc3ccccc3)CC(=O)N21)C(=O)c1nc2ccccc2s1`, the IC50 was less than 1 nM. In turn, `N=C(N)NCCC[C@H](NC(=O)[C@@H]1CCCN1C(=O)[C@H](CO)NS(=O)(=O)c1cccc2ccccc12)C(=O)c1nc2ccccc2s1` gave a Ki of 0.8 nM. Still for that read-out and setting: in the case of `N=C(N)NCCC[C@H](NC(=O)[C@@H]1CCCN1C(=O)CC(c1ccccc1)c1ccccc1)C(=O)c1nc2ccccc2s1` it was 1.1 nM.

In the case of `C[C@]12C[C@@H](Cc3ccc4nc(C(F)(F)F)ccc4c3)CC(=O)N1[C@H](C(=O)N[C@@H](CCCN=C(N)N)C(=O)c1nccs1)CS2`, affinity was put at a Ki of 10 nM. The same measure, in the same setting: with `N=C(N)NCCC[C@H](NC(=O)[C@@H]1CC[C@H]2CN(C(=O)CCOc3ccccc3)CC(=O)N21)C(=O)c1nccs1` the figure was 5 nM.

The target in another assay is Coagulation factor X (Homo sapiens, UniProt P00742). As to the kind of experiment: Inhibition of human factor 10a.
Coagulation factor X, sequence (P00742 41-179 limits assumed): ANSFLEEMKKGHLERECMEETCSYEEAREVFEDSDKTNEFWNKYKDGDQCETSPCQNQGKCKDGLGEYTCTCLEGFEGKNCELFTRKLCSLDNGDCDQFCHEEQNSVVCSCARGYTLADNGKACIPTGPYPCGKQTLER
Coagulation factor X, sequence (P00742 235-488 limits assumed): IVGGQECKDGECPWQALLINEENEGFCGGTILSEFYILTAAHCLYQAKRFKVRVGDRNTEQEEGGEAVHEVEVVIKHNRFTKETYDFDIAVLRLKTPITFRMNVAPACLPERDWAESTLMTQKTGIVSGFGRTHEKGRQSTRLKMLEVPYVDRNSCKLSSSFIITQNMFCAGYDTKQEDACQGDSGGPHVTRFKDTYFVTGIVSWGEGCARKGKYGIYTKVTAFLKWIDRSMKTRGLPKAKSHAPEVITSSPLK
`NC(N)=NCCC[C@H](NC(=O)CN1CCN(S(=O)(=O)Cc2ccccc2)CC1=O)C(=O)c1nccs1` returned an IC50 of 4 nM. The same measure, in the same setting: with `N=C(N)NCCC[C@H](NC(=O)CNC(=O)[C@@H](Cc1ccccc1)NS(=O)(=O)Cc1ccccc1)C(=O)c1nccs1` the figure was 2 nM. The same measure, in the same setting: with `N=C(N)NCCC[C@H](NC(=O)CNC(=O)[C@@H](Cc1c[nH]c2ccccc12)NS(=O)(=O)Cc1ccccc1)C(=O)c1nccs1` the figure was 2 nM; with `N=C(N)NCCC[C@@H](NS(=O)(=O)Cc1ccccc1)C(=O)NCC(=O)N[C@@H](CC1CCNCC1)C(=O)c1nccs1`, 28 nM; with `N=C(N)NCCC[C@@H](NS(=O)(=O)Cc1ccccc1)C(=O)NCC(=O)N[C@@H](Cc1ccncc1)C(=O)c1nccs1`, 44 nM.

Regarding `CS(=O)(=O)N[C@H](CCCNC(=N)N)C(=O)NCC(=O)N[C@@H](CCCNC(=N)N)C(=O)c1nccs1`, the IC50 is 2 nM.

For the compound `CN(CC(=O)N[C@@H](CCCNC(=N)N)C(=O)c1nccs1)C(=O)CNS(=O)(=O)c1ccccc1`, the midpoint of inhibition, the IC50, lay at 6 nM. Still for that read-out and setting: with `N=C(N)NCCC[C@@H](NS(=O)(=O)Cc1ccccc1)C(=O)NCC(=O)N[C@@H](CCCCN)C(=O)c1nccs1` the figure was 1 nM; with `N=C(N)NCCC[C@@H](N)C(=O)NCC(=O)N[C@@H](CCCNC(=N)N)C(=O)c1nccs1`, 8 nM.
